The results in this text go back to PMC12951562, “SH2scan: Mapping SH2 Domain-Ligand Binding Selectivity for Inhibitors and Degraders” (Journal of Medicinal Chemistry, 2026).

What all share (assay): biochemical
Common to all, as to type: binding

One assay has as its target T1, BLK (Homo sapiens, UniProt P51451).
T1 construct: the DNA-tagged SH2 domain concentrations used in this study were <0.1 nM; made in house; host or cells: HEK293 (transient transfection; unpurified extract)
As to conditions: primary screen, 10 μM; read-out: percent of DMSO vehicle control.

The target in another assay is T2, BLNK (Homo sapiens, UniProt Q8WV28).
T2 construct: the DNA-tagged SH2 domain concentrations used in this study were <0.1 nM; made in house; host or cells: HEK293 (transient transfection; unpurified extract)
T2 sequence (Q8WV28 346-453 limits assumed): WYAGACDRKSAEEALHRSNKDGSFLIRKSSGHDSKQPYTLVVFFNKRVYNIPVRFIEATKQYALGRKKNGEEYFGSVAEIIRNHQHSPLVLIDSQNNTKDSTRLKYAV
As to conditions: primary screen, 10 μM; read-out: percent of DMSO vehicle control.

The target in another assay is T3, CBLB (Homo sapiens, UniProt Q13191).
T3 construct: the DNA-tagged SH2 domain concentrations used in this study were <0.1 nM; made in house; host or cells: HEK293 (transient transfection; unpurified extract)
T3 sequence (Q13191 241-343 limits assumed): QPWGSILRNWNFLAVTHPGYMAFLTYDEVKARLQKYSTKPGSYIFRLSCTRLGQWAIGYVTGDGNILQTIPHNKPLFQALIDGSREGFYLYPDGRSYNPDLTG
Conditions: primary screen, 10 μM.

The target in the next assay is T4, GADS (Homo sapiens, UniProt O75791).
T4 construct: the DNA-tagged SH2 domain concentrations used in this study were <0.1 nM; made in house; host or cells: HEK293 (transient transfection; unpurified extract)
T4 sequence (O75791 58-149 limits assumed): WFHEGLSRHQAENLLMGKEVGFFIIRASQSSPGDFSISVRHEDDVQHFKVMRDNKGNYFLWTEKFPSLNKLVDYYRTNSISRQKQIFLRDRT
As to conditions: for remaining activity at 10 µM: primary screen, read-out: percent of DMSO vehicle control.

A further assay has as its target T5, GRB14 (Homo sapiens, UniProt Q14449).
T5 construct: the DNA-tagged SH2 domain concentrations used in this study were <0.1 nM; made in house; host or cells: HEK293 (transient transfection; unpurified extract)
T5 sequence (Q14449 439-535 limits assumed): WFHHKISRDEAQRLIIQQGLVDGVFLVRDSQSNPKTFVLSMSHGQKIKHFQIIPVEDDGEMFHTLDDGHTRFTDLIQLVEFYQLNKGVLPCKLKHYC
As to conditions: for remaining activity at 10 µM: primary screen, read-out: percent of DMSO vehicle control.

Another assay deals with T6, NCK2 (Homo sapiens, UniProt O43639).
T6 construct: the DNA-tagged SH2 domain concentrations used in this study were <0.1 nM; made in house; host or cells: HEK293 (transient transfection, unpurified extract)
T6 sequence (O43639 285-380 limits assumed): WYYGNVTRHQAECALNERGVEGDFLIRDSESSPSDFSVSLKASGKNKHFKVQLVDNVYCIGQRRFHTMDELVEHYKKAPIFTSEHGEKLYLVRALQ
As to conditions: primary screen, 10 μM; read-out: percent of DMSO vehicle control.

Another assay concerns the target T7, PIK3R1(SH2dom.N-term.) (Homo sapiens, UniProt P27986).
T7 construct: SH2dom.N-term. denotes SH2 domain closest to N-terminus of protein; made in house; host or cells: HEK293 (transient transfection, unpurified extract)
Conditions: primary screen, 10 μM; read-out: percent of DMSO vehicle control.

Another assay addresses T8, PLCG1(SH2dom.N-term.) (Homo sapiens, UniProt P19174).
T8 construct: SH2dom.N-term. denotes SH2 domain closest to N-terminus of protein; made in house; host or cells: HEK293 (transient transfection, unpurified extract)
T8 sequence (P19174 550-657 limits assumed): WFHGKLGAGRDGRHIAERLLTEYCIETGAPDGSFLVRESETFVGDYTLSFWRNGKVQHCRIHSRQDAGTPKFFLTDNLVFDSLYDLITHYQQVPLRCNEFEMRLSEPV
Conditions: for Kd: dose-response, read-out: KD; for remaining activity at 10 µM: primary screen, read-out: percent of DMSO vehicle control.

The next assay deals with T9, PTPN6(SH2dom.C-term.) (Homo sapiens, UniProt P29350).
T9 construct: SH2dom.C-term. denotes SH2 domain closest to C-terminus of protein; made in house; host or cells: HEK293 (transient transfection, unpurified extract)
T9 sequence (P29350 110-213 limits assumed): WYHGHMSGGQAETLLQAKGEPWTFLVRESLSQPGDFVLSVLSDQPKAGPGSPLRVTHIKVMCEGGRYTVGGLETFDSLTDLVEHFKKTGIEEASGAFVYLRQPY
As to conditions: primary screen, 10 μM; read-out: percent of DMSO vehicle control.

A further assay has as its target T10, PTPN6(SH2dom.N-term.) (Homo sapiens, UniProt P29350).
T10 construct: SH2dom.N-term. denotes SH2 domain closest to N-terminus of protein; made in house; host or cells: HEK293 (transient transfection, unpurified extract)
T10 sequence (P29350 4-100 limits assumed): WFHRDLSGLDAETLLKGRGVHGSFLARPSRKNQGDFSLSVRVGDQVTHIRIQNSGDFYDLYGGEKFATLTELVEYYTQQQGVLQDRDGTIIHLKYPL
Conditions: for remaining activity at 10 µM: primary screen, read-out: percent of DMSO vehicle control.

Another assay deals with T11, RASA1(SH2dom.C-term.) (Homo sapiens, UniProt P20936).
T11 construct: SH2dom.C-term. denotes SH2 domain closest to C-terminus of protein; made in house; host or cells: HEK293 (transient transfection, unpurified extract)
T11 sequence (P20936 351-441 limits assumed): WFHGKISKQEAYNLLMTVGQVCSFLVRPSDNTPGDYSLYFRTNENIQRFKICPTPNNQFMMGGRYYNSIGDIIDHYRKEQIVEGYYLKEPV
Conditions: primary screen, 10 μM; read-out: percent of DMSO vehicle control.

The target in a further assay is T12, SH2D6 (Homo sapiens, UniProt Q7Z4S9).
T12 construct: made in house; host or cells: HEK293 (transient transfection), unpurified extract
T12 sequence (Q7Z4S9 whole entry): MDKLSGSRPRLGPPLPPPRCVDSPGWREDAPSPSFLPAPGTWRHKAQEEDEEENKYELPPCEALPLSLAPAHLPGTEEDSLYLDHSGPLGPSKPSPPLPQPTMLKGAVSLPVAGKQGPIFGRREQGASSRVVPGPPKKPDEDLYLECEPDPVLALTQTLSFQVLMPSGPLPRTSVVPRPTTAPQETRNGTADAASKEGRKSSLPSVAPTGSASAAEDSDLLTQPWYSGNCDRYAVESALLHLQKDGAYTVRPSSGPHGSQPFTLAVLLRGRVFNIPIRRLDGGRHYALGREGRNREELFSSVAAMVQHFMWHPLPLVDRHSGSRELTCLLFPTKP
As to conditions: primary screen, 10 μM; read-out: percent of DMSO vehicle control.

The next assay concerns the target T13, SHC1 (Homo sapiens, UniProt P29353).
T13 construct: made in house; host or cells: HEK293 (transient transfection), unpurified extract
T13 sequence (P29353 1-583): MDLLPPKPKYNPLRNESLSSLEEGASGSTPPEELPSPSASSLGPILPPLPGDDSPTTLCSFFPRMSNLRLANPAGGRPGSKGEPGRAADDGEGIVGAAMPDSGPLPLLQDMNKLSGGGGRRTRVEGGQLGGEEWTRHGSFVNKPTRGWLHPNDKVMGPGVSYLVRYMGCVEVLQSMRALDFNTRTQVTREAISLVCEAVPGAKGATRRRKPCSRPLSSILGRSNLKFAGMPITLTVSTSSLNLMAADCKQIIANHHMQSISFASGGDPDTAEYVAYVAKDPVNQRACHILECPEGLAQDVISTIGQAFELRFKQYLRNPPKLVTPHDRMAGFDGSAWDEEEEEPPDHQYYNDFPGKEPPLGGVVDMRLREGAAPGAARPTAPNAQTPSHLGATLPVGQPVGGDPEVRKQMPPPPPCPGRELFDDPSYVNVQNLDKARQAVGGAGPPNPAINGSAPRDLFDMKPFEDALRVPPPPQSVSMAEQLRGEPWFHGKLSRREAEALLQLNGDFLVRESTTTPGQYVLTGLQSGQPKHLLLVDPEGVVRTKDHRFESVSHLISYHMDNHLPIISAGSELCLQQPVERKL
Conditions: primary screen, 10 μM; read-out: percent of DMSO vehicle control.

The next assay has as its target T14, CISH (Homo sapiens, UniProt Q9NSE2).
T14 construct: the DNA-tagged SH2 domain concentrations used in this study were <0.1 nM; made in house; host or cells: HEK293 (transient transfection; unpurified extract)
T14 sequence (Q9NSE2 82-163 limits assumed): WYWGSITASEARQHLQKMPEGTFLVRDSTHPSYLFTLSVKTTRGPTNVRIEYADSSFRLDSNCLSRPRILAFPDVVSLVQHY
Conditions: for Kd: dose-response, read-out: KD; for remaining activity at 10 µM: primary screen, read-out: percent of DMSO vehicle control.

The target in a further assay is T15, STAT3 (Homo sapiens, UniProt P40763).
T15 construct: made in house; host or cells: HEK293 (transient transfection), unpurified extract
T15 sequence (P40763 whole entry): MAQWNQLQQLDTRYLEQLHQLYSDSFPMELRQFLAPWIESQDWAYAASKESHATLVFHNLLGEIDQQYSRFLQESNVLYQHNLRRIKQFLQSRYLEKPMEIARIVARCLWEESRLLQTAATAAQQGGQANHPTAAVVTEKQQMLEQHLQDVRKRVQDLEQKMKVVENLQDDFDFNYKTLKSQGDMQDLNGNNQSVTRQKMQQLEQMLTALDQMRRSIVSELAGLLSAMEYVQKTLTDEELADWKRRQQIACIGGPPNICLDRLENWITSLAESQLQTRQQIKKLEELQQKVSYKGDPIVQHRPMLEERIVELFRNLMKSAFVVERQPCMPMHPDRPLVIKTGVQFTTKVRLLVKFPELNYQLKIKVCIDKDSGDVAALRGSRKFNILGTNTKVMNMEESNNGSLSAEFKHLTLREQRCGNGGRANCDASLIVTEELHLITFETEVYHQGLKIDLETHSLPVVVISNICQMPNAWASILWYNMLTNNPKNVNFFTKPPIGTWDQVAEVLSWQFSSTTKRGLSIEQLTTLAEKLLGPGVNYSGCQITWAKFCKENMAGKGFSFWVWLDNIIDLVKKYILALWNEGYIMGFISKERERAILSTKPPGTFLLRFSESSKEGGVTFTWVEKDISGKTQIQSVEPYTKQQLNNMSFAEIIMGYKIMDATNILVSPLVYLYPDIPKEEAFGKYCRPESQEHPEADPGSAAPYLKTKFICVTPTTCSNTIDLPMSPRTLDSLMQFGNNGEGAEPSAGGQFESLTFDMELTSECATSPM
As to conditions: for Kd: dose-response, read-out: KD; for remaining activity at 10 µM: primary screen, read-out: percent of DMSO vehicle control.

T7 sequence (P27986 333-428 limits assumed): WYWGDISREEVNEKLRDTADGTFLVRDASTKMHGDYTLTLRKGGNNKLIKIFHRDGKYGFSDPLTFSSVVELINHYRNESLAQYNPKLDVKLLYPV
T1 sequence (P51451 124-220 limits assumed): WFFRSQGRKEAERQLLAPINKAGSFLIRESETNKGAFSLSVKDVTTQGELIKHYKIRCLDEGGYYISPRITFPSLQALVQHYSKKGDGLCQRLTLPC

Usually Kd stands for the constant that tells how readily two partners part at equilibrium. In the case of `C/C(=C\C(=O)N[C@H](C(=O)N1CCC[C@H]1C(=O)N(c1ccccc1)c1ccc(I)cc1)C(C)(C)C)c1ccc(OP(=O)(O)O)cc1` [STAT6-IN-1], the remaining activity at 10 µM on BLK is 49.1 ± 3.4%; on BLNK it was 116 ± 19.9%; on GADS, 9.6 ± 0.1%; at GRB14, 24.5 ± 4%; at NCK2 it was 66.2 ± 8.2%; at PIK3R1(SH2dom.N-term.) it was 44.8 ± 5%. Besides, the remaining activity at 10 µM is 0.3 ± 0.1% at PLCG1(SH2dom.N-term.); 45.8 ± 7.8% at PTPN6(SH2dom.C-term.); 69.7% at PTPN6(SH2dom.N-term.); 76.6 ± 7.8% at RASA1(SH2dom.C-term.); 67.5 ± 5.3% at SH2D6; 48.2 ± 4.5% on SHC1. Moreover, the remaining activity at 10 µM came to 1.6 ± 2.3% at CISH and 0% at STAT3. The “percent of DMSO vehicle control” value on CBLB is 36.0±0.8%. The Kd on GADS (dose-response, read-out: KD) is 2400 nM; on GRB14 (dose-response, read-out: KD), 3.5 ± 0.42 µM; at PLCG1(SH2dom.N-term.) it was 890 ± 720 nM; on CISH, 3.6 ± 0.64 µM; at STAT3, 180 ± 0.01 nM.

In the case of `CC(C)(C)[C@H](NC(=O)/C=C/c1ccc(OP(=O)(O)O)cc1)C(=O)N1CCC[C@H]1C(=O)N(c1ccccc1)c1ccc(I)cc1` [STAT6-IN-3], the remaining activity at 10 µM amounted to 67.6 ± 11% on BLK; 145 ± 22.5% at BLNK; 76.5 ± 7.9% on GADS; 79.3 ± 7.7% on GRB14; 102 ± 68.4% on NCK2; 85.6 ± 12.9% at PIK3R1(SH2dom.N-term.). Besides, the remaining activity at 10 µM at PLCG1(SH2dom.N-term.) was 32.7 ± 14.4%; at PTPN6(SH2dom.C-term.), 136 ± 30.6%; on PTPN6(SH2dom.N-term.), 77.4 ± 15.8%; at RASA1(SH2dom.C-term.), 123 ± 14.3%; on SH2D6, 97.5 ± 15.9%; on SHC1 it was 62.5 ± 13.9%. In addition, the results for the remaining activity at 10 µM at CISH and at STAT3 were 26.8 ± 11.8% and 0.7 ± 0.2%, respectively. In addition, the “percent of DMSO vehicle control” value on CBLB was found to be 69.0±7.6%. The figures for the Kd at PLCG1(SH2dom.N-term.), at CISH and on STAT3 were 3700 ± 330 nM, 4.2 ± 1.1 µM and 370 ± 162 nM, respectively.

On to `O=C(COc1ccc2cc(C(=O)Nc3ccccc3)ccc2c1)NCc1ccc(OP(=O)(O)O)c(OP(=O)(O)O)c1` [Stafib-1], for which the remaining activity at 10 µM at BLK is 91.8 ± 35.5%; at BLNK, 158%; on GADS it was 51.9 ± 12.6%; at GRB14, 55.1 ± 11.6%; on NCK2, 91.4 ± 35.1%; on PIK3R1(SH2dom.N-term.) it was 88.8 ± 24.3%. Also, the remaining activity at 10 µM worked out at 82.6 ± 20.2% on PLCG1(SH2dom.N-term.); 179% on PTPN6(SH2dom.C-term.); 27.8 ± 4.2% at PTPN6(SH2dom.N-term.); 97 ± 11.7% on RASA1(SH2dom.C-term.); 88.5 ± 5.5% at SH2D6; 67.3 ± 22.1% at SHC1. Moreover, the remaining activity at 10 µM at CISH was found to be 1.7 ± 2.3%; at STAT3, 66.9 ± 10%. Further, at CBLB, the “percent of DMSO vehicle control” value is 78.9±15.9%. Further, the Kd at PTPN6(SH2dom.N-term.) (dose-response, read-out: KD) came to 13 µM; at CISH, 3.9 ± 8.5 µM.
